What was measured:
Format in all cases: toxicity, cell-based
HEK-293T = test: Incucyte cell viability with HEK293T; details: human, 10 µM, compound concentration 10 uM
Fibroblast = test: Incucyte cell viability with human fibroblast; details: 10 µM, compound concentration 10 uM
U2OS = test: Incucyte cell viability with U2OS; details: human, 10 µM, compound concentration 10 uM
Further: unitless GR value; below 1 slowed growth and below 0 cell loss.

Structure (SMILES)	Growth Rate (HEK-293T; 12 h, replicate number 2)	Growth Rate (Fibroblast; 0 h, replicate number 2)	Growth Rate (Fibroblast; 12 h, replicate number 2)	Growth Rate (Fibroblast; 18 h, replicate number 2)	Growth Rate (Fibroblast; 24 h, replicate number 2)	Growth Rate (U2OS; 18 h, replicate number 2)	Growth Rate (HEK-293T; 6 h, replicate number 1)	Growth Rate (HEK-293T; 6 h, replicate number 2)	Growth Rate (HEK-293T; 12 h, replicate number 1)	Growth Rate (HEK-293T; 18 h, replicate number 2)	Growth Rate (HEK-293T; 24 h, replicate number 2)	Growth Rate (Fibroblast; 6 h, replicate number 1)	Growth Rate (Fibroblast; 6 h, replicate number 2)	Growth Rate (Fibroblast; 12 h, replicate number 1)	Growth Rate (U2OS; 0 h, replicate number 1)	Growth Rate (HEK-293T; 18 h, replicate number 1)	Growth Rate (HEK-293T; 24 h, replicate number 1)	Growth Rate (U2OS; 0 h, replicate number 2)	Growth Rate (U2OS; 12 h, replicate number 1)	Growth Rate (U2OS; 24 h, replicate number 1)	other results
Cc1cc(OCc2nc3ccccc3s2)ccc1NC(=O)Nc1ccc(Cl)c(Cl)c1	0.92	-0.81	0.94	0.94	0.92	0.98	–	–	–	–	–	–	–	–	–	–	–	–	–	–	Growth Rate (HEK-293T; 0 h, replicate number 1): 0.1; Growth Rate (HEK-293T; 0 h, replicate number 2): -0.01; Growth Rate (Fibroblast; 0 h, replicate number 1): -1
Nc1n[nH]c2nc(-c3ccc(NS(=O)(=O)c4cccc(Cl)c4Cl)cc3)cnc12	0.81	-0.78	–	–	–	–	0.93	0.42	0.83	0.84	0.95	-0.19	-1	-0.95	0.36	–	–	–	–	–	Growth Rate (Fibroblast; 0 h, replicate number 1): 0.67
CC(C)n1cc(-c2ccc(N3CCN(C)CC3)c(NC(=O)c3ccc(-c4ccncc4)o3)c2)cn1	-0.01	-0.35	0.45	0.67	0.65	–	-0.65	-0.31	-0.36	0.15	0.31	-0.97	0.11	–	-0.65	-0.19	-0.08	-0.8	0.96	–	–
C[C@@H](Oc1cc(-n2cnc3ccc(OC4CCN(C)CC4)cc32)sc1C(N)=O)c1ccccc1Cl [GSK-579289A]	0.97	–	–	0.97	–	–	0.7	0.94	0.7	1	0.99	0.99	1	0.94	–	0.82	0.93	0.48	0.83	0.93	Growth Rate (HEK-293T; 0 h, replicate number 2): 0.69; Growth Rate (Fibroblast; 18 h, replicate number 1): 0.83; Growth Rate (U2OS; 12 h, replicate number 2): 0.84; Growth Rate (U2OS; 18 h, replicate number 1): 0.65; Growth Rate (U2OS; 24 h, replicate number 2): 0.79
N[C@@H](Cn1cc(F)c(=O)[nH]c1=O)C(=O)O	–	–	–	0.82	0.99	0.8	0.82	0.86	0.99	–	0.96	–	–	-0.98	0.45	–	–	–	–	–	Growth Rate (HEK-293T; 0 h, replicate number 1): 0.81; Growth Rate (Fibroblast; 18 h, replicate number 1): 0.16; Growth Rate (Fibroblast; 24 h, replicate number 1): 0.97; Growth Rate (U2OS; 6 h, replicate number 2): 0.7; Growth Rate (U2OS; 12 h, replicate number 2): 0.81; Growth Rate (U2OS; 24 h, replicate number 2): 0.83
COc1c(OCCCN2CCOCC2)ccc2c1N=C(NC(=O)c1cnc(N)nc1)N1CCN=C21 [COPANLISIB]	-0.17	–	-0.18	0.04	0.24	0.9	0.09	-0.34	0.15	-0.05	-0.04	-0.21	-0.38	0.1	-0.44	0.12	0.18	–	–	0.96	Growth Rate (HEK-293T; 0 h, replicate number 2): -1; Growth Rate (Fibroblast; 18 h, replicate number 1): 0.26; Growth Rate (Fibroblast; 24 h, replicate number 1): 0.41; Growth Rate (U2OS; 6 h, replicate number 1): 0.74; Growth Rate (U2OS; 18 h, replicate number 1): 0.98; Growth Rate (U2OS; 24 h, replicate number 2): 0.79
COc1ncc(-c2cc(-c3ncc(CN4C[C@@H](C)O[C@@H](C)C4)o3)c3cn[nH]c3c2)cc1NS(C)(=O)=O	-0.32	–	-0.16	0.05	0.3	0.21	-0.44	-0.64	-0.15	-0.2	-0.11	-0.74	-0.56	-0.39	–	-0.01	0.05	-0.39	0.56	0.82	Growth Rate (Fibroblast; 18 h, replicate number 1): -0.21; Growth Rate (Fibroblast; 24 h, replicate number 1): -0.03; Growth Rate (U2OS; 6 h, replicate number 1): -0.31; Growth Rate (U2OS; 6 h, replicate number 2): -0.02; Growth Rate (U2OS; 12 h, replicate number 2): 0.02; Growth Rate (U2OS; 18 h, replicate number 1): 0.72; Growth Rate (U2OS; 24 h, replicate number 2): 0.36
Cc1c(C(=O)Nc2cccc(C(F)(F)F)c2)cc(-c2ccccc2)n1CCCN1CCOCC1.Cl	0.01	–	0.65	0.73	0.84	0.88	-0.17	-0.54	0.11	0.27	0.37	-0.95	0.1	–	0.27	0.32	0.46	–	–	–	Growth Rate (U2OS; 12 h, replicate number 2): 0.89; Growth Rate (U2OS; 24 h, replicate number 2): 0.95
CCn1cnc2c(-c3ccc(F)c(-c4ccc(S(=O)(=O)CC)cc4OC)c3)cnnc21 [DARIGABAT]	-0.47	–	-0.93	-0.67	-0.48	-0.24	-0.79	-0.84	-0.63	-0.28	-0.18	–	-1	1	–	-0.38	-0.32	-0.95	-0.49	0.01	Growth Rate (Fibroblast; 0 h, replicate number 1): -0.83; Growth Rate (Fibroblast; 18 h, replicate number 1): -0.97; Growth Rate (Fibroblast; 24 h, replicate number 1): -0.69; Growth Rate (U2OS; 6 h, replicate number 1): -0.92; Growth Rate (U2OS; 6 h, replicate number 2): -0.7; Growth Rate (U2OS; 12 h, replicate number 2): -0.46; Growth Rate (U2OS; 18 h, replicate number 1): -0.16; Growth Rate (U2OS; 24 h, replicate number 2): -0.05
COc1cc(-c2cncc(-c3cnn(C4CCNCC4)c3)c2)cc(OC)c1OC	0.82	–	0.97	–	0.9	0.99	0.84	0.78	–	0.73	0.77	–	0.74	–	-1	–	–	–	–	–	Growth Rate (Fibroblast; 0 h, replicate number 1): 0.47; Growth Rate (Fibroblast; 24 h, replicate number 1): 0.86; Growth Rate (U2OS; 6 h, replicate number 2): 0.55; Growth Rate (U2OS; 24 h, replicate number 2): 0.94
Cc1cccc([C@H]2CC[C@@H](N3CCN(c4cccnc4)CC3)CC2)c1.O=C(O)C(F)(F)F.O=C(O)C(F)(F)F	0.66	-0.88	–	–	0.94	–	–	0.45	–	0.73	0.79	-0.37	-0.32	–	–	–	–	-0.63	1	0.93	Growth Rate (HEK-293T; 0 h, replicate number 1): 0.98; Growth Rate (Fibroblast; 24 h, replicate number 1): 0.58; Growth Rate (U2OS; 18 h, replicate number 1): 0.97
CC1=C(C(=O)OCCO)[C@@H](c2ccc(C#N)cc2)NC(=O)N1c1cccc(C(F)(F)F)c1	0.75	-0.51	–	0.92	–	–	0.61	–	0.73	0.71	0.97	–	–	–	–	0.68	0.67	0.55	–	–	–
COCCN(C)c1ccc(NC(=O)/C=C(\C)c2ccc3ccccc3c2)c(C(=O)O)c1	–	-0.29	–	–	–	–	–	–	–	–	–	–	–	–	0.79	–	–	–	0.72	0.91	Growth Rate (HEK-293T; 0 h, replicate number 1): 0.87; Growth Rate (HEK-293T; 0 h, replicate number 2): -0.37; Growth Rate (U2OS; 6 h, replicate number 1): 0.9; Growth Rate (U2OS; 12 h, replicate number 2): 0.92; Growth Rate (U2OS; 18 h, replicate number 1): 0.88
COc1cc2ncnc(N[C@H](C)c3ccccc3)c2cc1OC1CCN(S(C)(=O)=O)CC1.Cl	0.89	–	0.61	–	–	–	–	–	–	–	–	–	0.39	–	0.65	–	–	–	0.89	0.74	Growth Rate (HEK-293T; 0 h, replicate number 1): 0.37; Growth Rate (HEK-293T; 0 h, replicate number 2): -0.04; Growth Rate (Fibroblast; 0 h, replicate number 1): 0.4; Growth Rate (U2OS; 6 h, replicate number 1): 0.77; Growth Rate (U2OS; 18 h, replicate number 1): 0.8
O=C(Nc1ccc(OC(F)(F)Cl)cc1)c1cnc(N2CC[C@@H](O)C2)c(-c2ccn[nH]2)c1 [ASCIMINIB]	-0.17	0.89	0.12	0.46	0.63	0.82	-0.71	-0.37	-0.32	0.07	0.19	0.15	-0.75	0.06	–	-0.06	0.02	0.44	–	0.95	Growth Rate (Fibroblast; 0 h, replicate number 1): -1; Growth Rate (Fibroblast; 18 h, replicate number 1): 0.17; Growth Rate (Fibroblast; 24 h, replicate number 1): 0.35; Growth Rate (U2OS; 12 h, replicate number 2): 0.61

Source: ChEMBL document CHEMBL5303304, “EUbOPEN Chemogenomics Library - IncuCyte” (2023)
